Measurements taken from PubChem BioAssay (NCI).
Several values for one entry are separate records, joined by “and”; a condition that tells them apart may be missing. Equal entries are not always repeated.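 Assay format: 96-well plates, 48-hour exposure. GI50 = concentration required for 50% inhibition of growth. TGI: concentration producing complete growth inhibition.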

Tests used:
Assay in all cases: DTP human tumour cell line panel, 48 h
CAKI-1 renal = tested on: CAKI-1 renal
COLO 205 colon = tested on: COLO 205 colon
HS 578T breast = tested on: HS 578T breast
M14 melanoma = tested on: M14 melanoma
NCI-H23 lung = tested on: NCI-H23 lung
OVCAR-4 ovarian = tested on: OVCAR-4 ovarian
RPMI-8226 leukemia = tested on: RPMI-8226 leukemia
SK-MEL-28 melanoma = tested on: SK-MEL-28 melanoma
SN12C renal = tested on: SN12C renal
SW-620 colon = tested on: SW-620 colon

Compound | GI50 (CAKI-1 renal) | TGI (CAKI-1 renal) [µM] | GI50 (COLO 205 colon) [µM] | TGI (COLO 205 colon) [µM] | GI50 (HS 578T breast) [µM] | TGI (HS 578T breast) [µM] | GI50 (M14 melanoma) | TGI (M14 melanoma) | GI50 (NCI-H23 lung) | TGI (NCI-H23 lung) | GI50 (OVCAR-4 ovarian) | TGI (OVCAR-4 ovarian) | GI50 (RPMI-8226 leukemia) [µM] | TGI (RPMI-8226 leukemia) | GI50 (SK-MEL-28 melanoma) | TGI (SK-MEL-28 melanoma) | GI50 (SN12C renal) [µM] | TGI (SN12C renal) [µM] | GI50 (SW-620 colon) [µM] | TGI (SW-620 colon)
Fc1cccc(COc2ccc(Nc3ncnc4sc(-c5cccs5)cc34)cc2Cl)c1 | > 9.71 µM | > 25 | 1.42 | 10.5 | > 8.44 | > 14.9 | 7.66 µM | > 25 µM | > 13.6 µM | > 25 µM | 2.06 µM | 8.66 µM | > 25 | > 25 µM | 6.58 µM | > 22.8 µM | 9.2 | > 25 | > 13.3 | > 25 µM
CS(=O)(=O)Nc1cncc(-c2ccc3ncnc(Nc4ccc(F)c(Cl)c4)c3c2)c1 |  |  | 1.95 | 5.97 | 1.07 | 4.38 | 3.33 µM | 15.1 µM | 2.41 µM | 13.1 µM | 4.96 µM | 96.6 µM | 2.24 | 5.42 µM | 2.65 µM | 15.6 µM | 2.6 | 15.2 | 3.15 | 11.8 µM
Cc1nc2ccc(Nc3nc(Cl)nc(N4CCOCC4)n3)cc2n1Cc1ccccc1 | 20.2 µM | > 100 |  |  | 4.67 | > 100 |  |  | 1.94 µM | 3.92 µM |  |  | 97.2 | > 100 µM | 1.75 µM | 3.29 µM | 6.79 | 88 | 3.1 | > 100 µM
CC(=O)Nc1ccc2c(c1)C(c1ccccc1Cl)=Nc1c(n[nH]c1C)N2 | 2.84 µM | > 22.5 | 1.53 | > 22 | 0.928 | > 11.7 | > 25 µM | > 25 µM | 12.4 µM | > 25 µM | > 15.9 µM | > 25 µM | > 25 | > 25 µM | > 23.5 µM | > 25 µM | 5.05 | > 25 | 1.55 | > 25 µM
COc1cc(C2Cc3ncccc3-c3[nH]c(=O)c4cccnc4c32)cc(OC)c1OC (stereo not drawn) | 1.58 µM | > 100 | 0.332 | 1.27 | 0.613 | > 100 | 0.405 µM | > 100 µM | 0.999 µM | > 100 µM | 1.12 µM | > 100 µM | 0.68 | > 100 µM | 36 µM | > 100 µM | 1.19 | > 100 | 0.412 | > 100 µM
O=C(Oc1cccc2cccnc12)c1cc2c(cc1Cl)SC(N(c1ccc(F)cc1)S(=O)(=O)c1ccc(Br)s1)=NS2(=O)=O | 31.6 µM | 97.6 | 18.5 | 50.8 | 38.9 | > 100 | 23.9 µM | > 100 µM | 21.2 µM | 59 µM | 17.8 µM | 46.8 µM | 28.6 | 96.3 µM | 40.9 µM | > 100 µM | 24.9 | > 100 | 25.3 | > 100 µM
CCN1C(=S)N(c2ccccc2)C2NC(=S)N(/N=C/C=C/c3ccccc3OC)C21 (stereo not drawn) | 0.298 µM | > 100 | 0.435 | 2.16 | 0.359 | > 100 | 0.304 µM | > 100 µM | 0.658 µM | > 100 µM | 0.839 µM | > 100 µM | 0.377 | > 24.8 µM | 1.47 µM | > 100 µM | 0.541 | > 100 | 0.404 | > 100 µM
CCSCC1CC(O)(c2ccccc2)CC(c2ccc(F)cc2)O1 (stereo not drawn) | 2.42 µM | 8.16 | 1.53 | 2.87 | 1.89 | 4.36 | 1.76 µM | 3.32 µM | 2.1 µM | 5.28 µM | 2.69 µM | 11.5 µM | 1.95 | 6.46 µM | 2.15 µM | 4.44 µM | 1.74 | 3.17 | 1.98 | 4.42 µM
Cc1nc([P+](c2ccccc2)(c2ccccc2)c2ccccc2)c(Sc2sc(-c3ccccc3)nc2[P+](c2ccccc2)(c2ccccc2)c2ccccc2)o1 | 2.69 µM | 9.71 |  |  | 1.22 | 5.32 | 1.21 µM | 5.3 µM | 1.99 µM | 5.92 µM | 0.952 µM | 5.82 µM | 0.27 | 1.25 µM | 1.99 µM | 10.5 µM | 1.72 | 6.88 | 0.637 | 2.85 µM
COc1cc2c(cc1OC)[C@@H](Nc1ccc(C#N)cc1)C1COC(=O)[C@@H]1C2c1cc(OC)c(O)c(OC)c1 (stereo partly drawn) | 0.223 µM and 0.166 µM |  |  | 15.6 |  | 7.54 | 0.515 µM and 0.342 µM | 95 µM and > 100 µM | 0.159 µM and 0.0337 µM | 1.47 µM and 0.257 µM | 19.1 µM and 26.8 µM | 75.1 µM and > 100 µM |  | 0.225 µM and 0.65 µM | 3.4 µM and 6.94 µM | 95 µM and > 100 µM |  | 2.28 |  | 18.8 µM and > 100 µM
Fc1cc2[nH]ncc2c2c3c(c(-c4cn[nH]c4C(F)(F)F)nc12)CCCC3 | 1.81 µM | 7.54 | 1.55 | 4.32 | 1.66 | 5.26 | 1.31 µM | 4.12 µM | 1.49 µM | 6.49 µM |  |  | 1.56 | > 100 µM | 1.41 µM | 5.35 µM | 1.7 | 8.63 | 1.36 | > 100 µM
c1ccc2sc(SCCSc3nc4ccccc4s3)nc2c1 |  | > 100 |  |  |  | > 100 |  | > 100 µM |  | > 100 µM |  | > 100 µM |  | > 100 µM |  | > 100 µM |  | > 100 |  | > 100 µM
NNC(=S)N/N=C(\C(=O)Nc1cccc(O)c1)C1C(=O)NC(=S)NC1=O |  | > 100 |  |  |  | > 100 |  | > 100 µM |  |  |  | > 100 µM |  | > 100 µM |  | > 100 µM |  | > 100 |  | > 100 µM
CC(C)(Br)C(=O)N1CCN(C(c2ccccc2)c2ccccc2)CC1 |  | > 100 |  | > 100 |  | 55.5 |  | > 100 µM |  | > 100 µM |  | > 100 µM |  |  |  | > 100 µM |  | > 100 |  | > 100 µM
